Test results reported in patent US20200361919A1, “DEUTERATED INDOLEAMINE 2,3-DIOXYGENASE INHIBITOR AND APPLICATION THEREOF” (NANJING TRANSTHERA BIOSCIENCES CO. LTD., priority 2017, published 2020).
Where two headings read alike, the source gives them in different places. Each block holds one molecule with its values, some of them ahead of it.

Columns and labels:
[1] = Stability test of Crystalline Form B; type: physicochemical
Text: Method: Crystalline Form B was left open for 10 days at high temperature and in high humidity conditions. The properties, measured content and impurities of the Crystalline Form B were observed, and the XRPD patterns were compared to obtain the data in Table 6.

Hela cells = assay: Cytological evaluation in rhIFN-γ stimulated Hela cells; type: cell-based; settings: rhIFN-γ 50 ng/ml, read-out: Hela Cell IC50
Description: Test substances: Compounds 1-3 of the present invention, prepared as described in the previous specific Examples.
Hela cell line (Cell Bank, Chinese Academy of Sciences)
Recombinant human IFN-γ (rhIFN-γ, purchased from R&D Systems, Cat. No. 285-IF-100)
Cell plating: Hela cell suspension was prepared with fresh phenol red-free DMEM medium, and 20,000 cells/well were added to a 96-well cell culture plate, and cultured in 5% carbon dioxide at 37° C. overnight.
Preparation of compounds: the compounds were made up into 0.5 mM solution with DMSO, and the compounds were diluted 3.16 times with DMSO to obtain 8 compound mother liquors of concentration gradients (500×), and diluted with cell culture medium to prepare 10× dilutions.
Medication and incubation: After the cells were seeded and cultured overnight, 10 μL of a compound of the corresponding diluted mother liquor (10×) was added to each well and incubated for 1 hour, then 10 μL of 500 ng/ml rhIFN-γ was added, the final volume of each well was 100 μL. The negative control wells contained 100 μL of 0.5% DMSO cell culture medium and Hela cells. The positive control wells were the wells where rhIFN-γ at a final concentration of 50 ng/ml was added to the negative control wells, and the background control wells contained 100 μL of cell culture medium. After incubation in a 37 ° C. incubator for 24 hours. the cell morphology was observed under an inverted microscope.
Detection: After the cell plate was centrifuged, 80 μL of the supernatant was taken and added to a Corning 96-well plate, 10 μL of trichloroacetic acid was added to each well, shaken, placed in a 60 ° C. incubator for 30 minutes, and centrifuged at 2500 rpm for 5 minutes. 45 μL of the supernatant was taken and transferred to a new plate, 45 μL of chromogenic solution was added, shaken to make the reaction uniform. After incubating at room temperature for 15 minutes, the absorbance at 492 nm wavelength was read.

[2] = Stability test of Crystalline Form A; type: physicochemical
Text: Method: Crystalline Form A was left open at high temperature and in high humidity conditions, and XRPD patterns were compared to […]. The data in Table 5 below were obtained.

TDO = molecular target: T1, TDO (Homo sapiens, UniProt P48775); assay: Enzymatic assay, TDO; type: biochemical
T1 construct: made in house
Description: (§1) Test substance: Compound 1 of the present invention, prepared according to the method of Example 1 or the Step 3 of Example 5
(§2) I. Experimental materials and instruments
(§3) Preparation of compound: The compound was made up into 1 mM compound mother liquor with DMSO, and then the compound was diluted 3.16 times with DMSO to obtain 10 concentration gradients (100×) of the compound of the diluted mother liquors..
(§4) Medication and incubation: 10 μL of 100× compound of the diluted mother liquors were added into a 96-well plate, to which was added 10 μL of enzyme solution (IDO-1 or TDO), centrifuged at 2000 rpm for 1 minute, and incubated at room temperature for 30 minutes. 4% DMSO enzyme-free solution was used as a negative control, and 4% DMSO enzyme-containing solution was used as a positive control. 20 μL of substrate mixture (L-tryptophan, ascorbate, methylene blue, catalase) was added and incubated for 1 hour at room temperature, then 20 μL of stop solution was added to the experimental plate to terminate the reaction. After shaking and mixing, incubation was carried out at 60° C. for 30 minutes. […]
(§5) Detection: A microplate reader was used to detect the absorbance value at 492 nm.
(§6) Calculation: The inhibition rate was calculated according to the following formula, using the Spectramax program to fit the curve slope, and using GraphPad Prism5.0 to fit the IC50: […]

[3] = Evaluation of pharmacokinetics in mice; type: in vivo, C57BL/6 female mice; settings: for Cl_obs / Vz_obs / tz 1/2 / AUC(0-t) / AUC(0-inf): IV 5 mg/kg, C57BL/6 female mice, mean; for AUC(0-t) / AUC(0-inf): mouse, plasma; for AUC(0-inf): read-out: AUCINF_obs
Description: Test substance: Compound 1 of the present invention,prepared according to the method of Example 1 or Step 3 of Example 5;
Compound R, prepared as described in Example 8.
Animal: C57BL/6 female mice
The Compound 1 used in the test was dissolved in 10% DMA+10% (30% solutol)+80% saline to prepare a solution, and the non-deuterated compound was dissolved in 10% DMA+10% PEG+80% saline to prepare a solution. C57BL/6 female mice were administered intravenously with Compound 1 at a dose of 5.0 mg/kg. The time points for blood sampling were: 5 min, 15 min, 30 min, 1 h, 2 h, 4 h, 6 h, 8 h, and 24 h. About 100 μL of blood was collected from the venous plexus, and the blood sample was placed in an anti-coagulation tube containing EDTA-K2. The blood sample was centrifuged at 8000 rpm for 6 minutes at 4° C. to obtain a plasma sample, wherein the plasma must be prepared within 30 minutes after blood sampling, and stored in −80° C. refrigerator before plasma testing.
The sample (−80° C.) to be tested was taken out from the refrigerator, melted at room temperature and vortexed for 5 minutes; 10 μL of plasma samples of 3 different individuals were precisely pipetted into 1.5 mL centrifuge tubes (for standard curve of plasma, 30 μL); 200 μL of 100 ng/mL internal standard working solution was added, and mixed well; vortexed for 5 min, then centrifuged for 5 min (12000 rpm); precisely pipetted 50 μL of supernatant into a 96-well plate to which was added 150 μL/well of water in advance; vortexed and mixed for 5 min. The injection volume was 15 μL, and LC-MS/MS measurement was carried out.
The concentrations of test substance were used from the analysis results of AB Analyst 1.6.3. Microsoft Excel was used to calculate the parameters such as mean, standard deviation, and coefficient of variation (those directly output from Analyst 1.6.3 were not calculated). The PK parameters were calculated using Pharsight Phoenix 6.1 software NCA.

CT26 cells = assay: In vivo pharmacodynamics, subcutaneous homograft model with colon cancer cell CT26 in mouse; design: species or system Balb/C mice; settings: 150 mg/kg PO Bid 10 days, CT26 tumor-bearing mice
Description: Test substance: Compound 1 of the present invention, which structure was shown in the foregoing.
CT26 cells were cultured in RPMI1640 medium containing 10% fetal bovine serum. CT26 cells in exponential growth phase were collected, and resuspended in PBS to a suitable concentration for subcutaneous tumor inoculation in mice.
0.1 mL of cell suspension (cells suspended in PBS) containing about 5×10^5 CT26 cells was subcutaneously inoculated into the skin of the right back of female Balb/C mice. The mice were grouped and administrated when the average tumor volume reached about 100 mm^3. Grouping method: weighing animals before administration, and measuring tumor volume. According to tumor volume, the mice were grouped using block design, 9 mice in each group.
Administration was performed according to Table 7 below.
The animals' health and death were monitored daily, their body weights and tumor volumes were measured twice a week, and samples were collected after the last dose. The curative effect of tumor volume was evaluated by TGI%, wherein relative tumor suppression rate TGI (%) was: TGI=1-T/C (%). T/C% was the relative tumor increment rate, that is, the percentage of tumor volume in the treatment group relative to that of the control group at a specific time point. […]

IDO-1 = molecular target: T2, IDO-1 (Homo sapiens, UniProt P14902); assay: Enzymatic assay, IDO-1; type: biochemical
T2 construct: made in house
Description: as §1, §2, §3, §4, §5, §6

[4] = High temperature, 60° C., left open, 10 days
[5] = IV 5 mg/kg mice, compared with Compound R

T2 sequence (P14902 whole entry, species assumed): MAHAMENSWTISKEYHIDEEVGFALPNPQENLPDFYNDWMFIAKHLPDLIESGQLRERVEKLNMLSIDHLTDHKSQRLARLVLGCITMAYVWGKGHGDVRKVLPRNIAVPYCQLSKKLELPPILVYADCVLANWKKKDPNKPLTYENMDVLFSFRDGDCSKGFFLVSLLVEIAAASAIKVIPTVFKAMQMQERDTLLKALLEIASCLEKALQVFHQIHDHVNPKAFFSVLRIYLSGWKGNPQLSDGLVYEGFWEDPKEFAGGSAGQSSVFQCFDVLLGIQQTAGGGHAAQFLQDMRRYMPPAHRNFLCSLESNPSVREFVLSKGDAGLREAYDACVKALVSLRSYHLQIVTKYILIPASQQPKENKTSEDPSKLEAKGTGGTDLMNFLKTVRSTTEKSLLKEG
T1 sequence (P48775 whole entry, species assumed): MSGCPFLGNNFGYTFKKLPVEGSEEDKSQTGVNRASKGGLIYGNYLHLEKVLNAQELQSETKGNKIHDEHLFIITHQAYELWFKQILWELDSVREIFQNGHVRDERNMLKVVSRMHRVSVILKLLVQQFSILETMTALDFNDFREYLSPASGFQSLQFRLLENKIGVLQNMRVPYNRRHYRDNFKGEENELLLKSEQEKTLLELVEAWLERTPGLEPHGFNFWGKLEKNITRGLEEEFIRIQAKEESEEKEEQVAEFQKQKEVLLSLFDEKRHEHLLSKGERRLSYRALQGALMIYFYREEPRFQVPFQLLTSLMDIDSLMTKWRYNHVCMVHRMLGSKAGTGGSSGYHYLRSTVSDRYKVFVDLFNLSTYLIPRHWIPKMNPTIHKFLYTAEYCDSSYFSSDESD

Content, % ([1]; 0-Day): 99.6%
Impurity, % ([1]; 0-Day): 0.17%
Properties ([1]; 0-Day): Off-white
XRPD ([1]; 0-Day): Crystal Form B,
Content, % [1, 4]: 99.4%
Impurity, % [1, 4]: 0.16%
Properties [1, 4]: Off-white
Content, % ([1]; RH 92.5%, left open, 10 days): 99.3%
Impurity, % ([1]; RH 92.5%, left open, 10 days): 0.15%
Properties ([1]; RH 92.5%, left open, 10 days): Off-white
IC50 (Hela cells; 24 hours): 30 nM
SMILES: [2H]C1([2H])CC(Nc2nonc2C(=NO)Nc2ccc(F)c(Br)c2)CC([2H])([2H])S1(=O)=O [Crystal Form B of Compound 1]

Impurity, % ([2]; 0-Day): 0.74%
XRPD ([2]; 0-Day): Crystal Form A, FIG. 1
XRPD ([2]; High temperature, 105° C., left open, 3 days): Consistent with the 0-day XRPD
XRPD ([2]; RH 92.5%, left open, 3 days): Consistent with the 0-day XRPD
Impurity, % ([2]; RH 92.5%, left open, 10 days): 0.99%
IC50 (Hela cells; 24 hours): 40 nM
SMILES: [2H]C1([2H])CC(Nc2nonc2C(=NO)Nc2ccc(F)c(Br)c2)CC([2H])([2H])S1(=O)=O [Crystal Form A of Compound 1]

Cl_obs [3]: 73.2 mL/min/kg
Vz_obs [3]: 12 L/kg
tz 1/2 [3]: 1.81 h
AUC(0-t) [3]: 1120 ng·h/mL
AUC(0-inf) [3]: 1140 ng·h/mL
SMILES: O=S1(=O)CCC(Nc2nonc2C(=NO)Nc2ccc(F)c(Br)c2)CC1 [Compound R, N-(3-bromo-4-fluorophenyl)-4-((1,1-dioxotetrahydro-2H-thian-4-yl)amino)-N′-hydroxy-1,2,5-oxadiazole-3-carboxamidine, reference compound]

Continued, molecule first:

SMILES: [2H]C1([2H])C(Nc2nonc2C(=NO)Nc2ccc(F)c(Br)c2)C([2H])([2H])S1(=O)=O [Compound 3, N-(3-bromo-4-fluorophenyl)-4-((1,1-dioxothiacyclobutan-3-yl-2,2,4,4-d4)amino)-N′-hydroxy-1,2,5-oxadiazole-3-carboxamidine]
IC50 (Hela cells; Homo sapiens, HeLa, 24 h): 49.6 nM

SMILES: [2H]C1([2H])CC(Nc2nonc2C(=NO)Nc2ccc(F)c(Br)c2)CC([2H])([2H])S1(=O)=O [Compound 1, N-(3-bromo-4-fluorophenyl)-4-((1,1-dioxotetrahydro-2H-thian-4-yl-2,2,6,6-d4)amino)-N′-hydroxy-1,2,5-oxadiazole-3-carboxamidine]
IC50 (TDO): 5040 nM
clearance rate (in words) [3, 5]: lower
exposure amount (in words) [3, 5]: higher
Cl_obs [3]: 36.5 mL/min/kg
Vz_obs [3]: 11.7 L/kg
tz 1/2 [3]: 3.70 h
AUC(0-t) [3]: 2040 ng·h/mL
AUC(0-inf) [3]: 2290 ng·h/mL
TGI (tumor volume inhibition rate) (CT26 cells): 38%
Tumor volume (CT26 cells): 414.32 ± 52.44 mm^3
IC50 (IDO-1): 85.4 nM
IC50 (Hela cells; 24 hours): 99.7 nM

SMILES: [2H]C1([2H])CC(Nc2nonc2C(=NO)Nc2ccc(F)c(Br)c2)C([2H])([2H])S1(=O)=O (stereo not drawn) [Compound 2, N-(3-bromo-4-fluorophenyl)-4-((1,1-dioxotetrahydro-thiophen-3-yl-2,2,5,5-d4)amino)-N-hydroxy-1,2,5-oxadiazole-3-carboxamidine]
IC50 (Hela cells; Homo sapiens, HeLa, 24 h): 50.5 nM
